Data taken from US8859580B2 (Boehringer Ingelheim International GmbH, priority 2007, dated 2014).
pIC50: −log10 of the molar value.

target: T1, 11β-HSD1 (Homo sapiens, UniProt P28845); experiment: In vitro inhibition of 11β-HSD1, HTRF detection of cortisol generated from cortisone by human liver microsomes; type: biochemical; settings: 11β-HSD IC50 (nM), 1 hour at 37° C., pH 6.0, NADPH 200 μM, cortisone 80 nM, inhibition relative to carbenoxolone signal
T1 construct: detecting cortisol generated from cortisterone by human liver microsomes; from tissue; host or cells: human liver microsomes
Description: Cortisol generated in the reaction is then detected with a competitive immunoassay, involving two HTRF conjugates: cortisol linked to XL665 and anti-cortisol antibody labeled with Europium cryptate. The incubation period for detection reaction was typically 2 hours. […] The ratio of the two emission signals is then calculated (Em665*10000/Em615). […] Each assay also contained a calibration curve with cortisol to transform the fluorescent data into cortisol concentrations. Percent inhibition of each compound was determined relative to the carbenoxolone signal and IC50 curves were generated.

T1 sequence (P28845 whole entry): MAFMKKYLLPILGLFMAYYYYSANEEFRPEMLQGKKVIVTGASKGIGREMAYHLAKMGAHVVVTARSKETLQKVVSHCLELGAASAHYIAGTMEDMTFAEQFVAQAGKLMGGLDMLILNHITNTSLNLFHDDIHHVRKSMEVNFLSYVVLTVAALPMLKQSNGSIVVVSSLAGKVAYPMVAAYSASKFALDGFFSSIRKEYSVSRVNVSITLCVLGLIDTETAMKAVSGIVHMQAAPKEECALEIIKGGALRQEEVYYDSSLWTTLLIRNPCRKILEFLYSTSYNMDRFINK

SMILES | IC50 [nM]
CC1(C)[C@H]2Cc3ccccc3[C@]1(C)CCN2C(=O)c1ccc2cn[nH]c2c1 [Example 285, (1H-Indazol-6-yl)-[(2R,6S)-6,11,11-trimethyl-1,2,5,6-tetrahydro-4H-2,6-methano-benzo[d]azocin-3-yl]-methanone] | 150
CN(Cc1ccccc1)C(=O)c1ccc(C(=O)N2CC[C@@]3(C)c4cccc(O)c4C[C@@H]2C3(C)C)cc1 [Example 170, N-Benzyl-4-[(2R,6S)-10-hydroxy-6,11,11-trimethyl-1,2,5,6-tetrahydro-4H-2,6-methano-benzo[d]azocine-3-carbonyl]-N-methyl-benzamide] | 626
CC1(C)[C@H]2Cc3c(O)cccc3[C@]1(C)CCN2C(=O)c1cccc(C(N)=O)c1 [Example 41, 3-[(2R,6S)-10-Hydroxy-6,11,11-trimethyl-1,2,5,6-tetrahydro-4H-2,6-methano-benzo[d]azocine-3-carbonyl]-benzamide] | 589
Cc1ccc2c(c1)C1(C)CCN(C(=O)c3ccc4nc[nH]c4c3)C(C2)C1(C)C (centres unmarked) [Example 69, (3H-Benzoimidazol-5-yl)-(6,8,11,11-tetramethyl-1,2,5,6-tetrahydro-4H-2,6-methano-benzo[d]azocin-3-yl)-methanone] | 105
CC1(C)[C@H]2Cc3c(O)cccc3[C@]1(C)CCN2C(=O)c1ccc2ncsc2c1 [Example 46, Benzothiazol-6-yl-[(2R,6S)-10-hydroxy-6,11,11-trimethyl-1,2,5,6-tetrahydro-4H-2,6-methano-benzo[d]azocin-3-yl]-methanone] | 97
C[C@@H]1[C@H]2Cc3ccc(CN)cc3[C@]1(C)CCN2C(=O)c1ccc2nc[nH]c2c1 [Example 172, [(2R,6R,11S)-8-Aminomethyl-6,11-dimethyl-1,2,5,6-tetrahydro-4H-2,6-methano-benzo[d]azocin-3-yl]-(3H-benzoimidazol-5-yl)-methanone] | 1720
C[C@H]1[C@H]2Cc3ccc(O)cc3[C@]1(C)CCN2C(=O)c1ccc2nc[nH]c2c1 [Example 247, (3H-Benzoimidazol-5-yl)-[(2R,6R,11R)-8-hydroxy-6,11-dimethyl-1,2,5,6-tetrahydro-4H-2,6-methano-benzo[d]azocin-3-yl)-methanone] | 190
C[C@@H]1[C@H]2Cc3cc4nc(C5CC5)oc4cc3[C@]1(C)CCN2C(=O)c1ccc2nc[nH]c2c1 [Example 311, (3H-Benzoimidazol-5-yl)-[(6R,10R,12S)-2-cyclopropyl-5,6,7,8,9,10-hexahydro-10,12-dimethyl-6,10-methano-oxazolo[5,4-i][3]benzazocin-7-yl]-methanone] | 424
Cc1occc1C(=O)N1CC[C@@]2(C)c3cccc(O)c3C[C@@H]1C2(C)C [Example 180, [(2R,6S)-10-Hydroxy-6,11,11-trimethyl-1,2,5,6-tetrahydro-4H-2,6-methano-benzo[d]azocin-3-yl]-(2-methyl-furan-3-yl)-methanone] | 1320
COC(=O)c1cc(F)cc(C(=O)N2CC[C@@]3(C)c4cccc(O)c4C[C@@H]2C3(C)C)c1 [Example 43, 3-Fluoro-5-[(2R,6S)-10-hydroxy-6,11,11-trimethyl-1,2,5,6-tetrahydro-4H-2,6-methano-benzo[d]azocine-3-carbonyl]-benzoic acid methyl ester] | 1760
CC1(C)[C@H]2Cc3c(O)cccc3[C@]1(C)CCN2C(=O)c1c[nH]c2ccccc12 [Example 118, [(2R,6S)-10-Hydroxy-6,11,11-trimethyl-1,2,5,6-tetrahydro-4H-2,6-methano-benzo[d]azocin-3-yl]-(1H-indol-3-yl)-methanone] | 72
CC(=O)N1CCC(c2nc3cc4c(cc3[nH]2)[C@]2(C)CCN(C(=O)c3ccc5nc[nH]c5c3)[C@H](C4)C2(C)C)CC1 [Example 269, [(6R,10S)-2-(1-Acetyl-piperidin-4-yl)-5,6,7,8,9,10-hexahydro-10,12,12-trimethyl-6,10-methano-imidazo[5,4-i][3]benzazocin-7-yl]-(3H-benzoimidazol-5-yl)-methanone] | 63
CC1(C)[C@H]2Cc3ccccc3[C@]1(C)CCN2C(=O)c1ccc(O)cc1 [Example 318, (4-Hydroxy-phenyl)-[(2R,6S)-6,11,11-trimethyl-1,2,5,6-tetrahydro-4H-2,6-methano-benzo[d]azocin-3-yl]-methanone] | 31
CC1CN(Cc2ccc(C(=O)N3CC[C@@]4(C)c5cccc(O)c5C[C@@H]3C4(C)C)cc2)CCO1 (some centres unmarked) [Example 142] | 689
COC(=O)c1ccc(C(=O)N2CC[C@@]3(C)c4cccc(O)c4C[C@@H]2C3(C)C)cc1 [Example 50, 4-[(2R,6S)-10-Hydroxy-6,11,11-trimethyl-1,2,5,6-tetrahydro-4H-2,6-methano-benzo[d]azocine-3-carbonyl]-benzoic acid methyl ester] | 3000
CC1(C)[C@H]2Cc3c(ccc4[nH]cnc34)[C@]1(C)CCN2C(=O)c1ccc2nc[nH]c2c1 [Example 191, (3H-Benzoimidazol-5-yl)-[(5R,9S)-4,5,6,7,8,9-hexahydro-2,10,12,12-trimethyl-5,9-methano-1H-imidazo[5,4-j][3]benzazocin-6-yl]-methanone] | 571
CC(=O)c1ccc2c(c1)[C@]1(C)CCN(C(=O)c3ccc4nc[nH]c4c3)[C@H](C2)C1(C)C [Example 204, 1-[(2R,6S)-3-(3H-Benzoimidazole-5-carbonyl)-6,11,11-trimethyl-1,2,3,4,5,6-hexahydro-2,6-methano-benzo[d]azocin-8-yl]-ethanone] | 27
CC1(C)[C@H]2Cc3ccccc3[C@]1(C)CCN2C(=O)c1cc(F)c(F)c(F)c1 [Example 297, (3,4,5-Trifluoro-phenyl)-[(2R,6S)-6,11,11-trimethyl-1,2,5,6-tetrahydro-4H-2,6-methano-benzo[d]azocin-3-yl]-methanone] | 895
CC1(C)[C@H]2Cc3c(O)cccc3[C@]1(C)CCN2C(=O)c1ccc(Cn2cncn2)cc1 [Example 131, [(2R,6S)-10-Hydroxy-6,11,11-trimethyl-1,2,5,6-tetrahydro-4H-2,6-methano-benzo[d]azocin-3-yl]-(4-[1,2,4]triazol-1-ylmethyl-phenyl)-methanone] | 361
CCC12CCN(C(=O)c3ccc4nc[nH]c4c3)C(Cc3ccc(O)cc31)C2 (centres unmarked) [Example 90, (3H-Benzoimidazol-5-yl)-(6-ethyl-8-hydroxy-1,2,5,6-tetrahydro-4H-2,6-methano-benzo[d]azocin-3-yl)-methanone] | 468
CC1(C)[C@H]2Cc3c(O)cccc3[C@]1(C)CCN2C(=O)c1c[nH]c2ccc(Cl)cc12 [Example 196, (5-Chloro-1H-indol-3-yl)-[(2R,6S)-10-hydroxy-6,11,11-trimethyl-1,2,5,6-tetrahydro-4H-2,6-methano-benzo[d]azocin-3-yl]-methanone] | 781

same assay, conditions: 1 hour at 37° C., pH 6.0, NADPH 200 μM, cortisone 80 nM, inhibition relative to carbenoxolone signal, read-out: 11β-HSD IC50

SMILES | pIC50
CC12CCN(C(=O)c3ccc4nc[nH]c4c3)C(CCc3ccccc31)C2 (centres unmarked) [Example 98, (3H-Benzoimidazol-5-yl)-(1-methyl-11-aza-tricyclo[8.3.1.0*2,7*]tetradeca-2,4,6-trien-11-yl)-methanone] | 6.90
COc1ccc2c(c1)C1CCN(C(=O)c3ccc4nc[nH]c4c3)C2C1 (centres unmarked) [Example 99, (3H-Benzoimidazol-5-yl)-(4-methoxy-9-aza-tricyclo[6.3.1.0*2,7*]dodeca-2,4,6-trien-9-yl)-methanone] | 6.55
